Measured values taken from PubChem BioAssay (NCI).
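Assay format: 96-well plates, 48-hour exposure. Definition used: TGI = concentration required for complete inhibition of growth.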

What was measured:
Experiment in all cases: DTP human tumour cell line panel, 48 h
NCI-H226 lung = test system: NCI-H226 lung
NCI/ADR-RES ovarian = test system: NCI/ADR-RES ovarian
HCT-116 colon = test system: HCT-116 colon
RXF 393 renal = test system: RXF 393 renal
OVCAR-5 ovarian = test system: OVCAR-5 ovarian
A549 NSCLC = test system: A549 NSCLC
KM12 colon = test system: KM12 colon
HOP-92 NSCLC = test system: HOP-92 NSCLC
OVCAR-3 ovarian = test system: OVCAR-3 ovarian
SF-268 CNS = test system: SF-268 CNS
PC-3 prostate = test system: PC-3 prostate
OVCAR-8 ovarian = test system: OVCAR-8 ovarian
SNB-19 CNS = test system: SNB-19 CNS
K-562 leukemia = test system: K-562 leukemia
MOLT-4 leukemia = test system: MOLT-4 leukemia
UO-31 renal = test system: UO-31 renal
NCI-H460 lung = test system: NCI-H460 lung
SNB-75 CNS = test system: SNB-75 CNS
A498 renal = test system: A498 renal

Structure (SMILES) | TGI (NCI-H226 lung) [µM] | TGI (NCI/ADR-RES ovarian) [µM] | TGI (HCT-116 colon) [µM] | TGI (RXF 393 renal) [µM] | TGI (OVCAR-5 ovarian) [µM] | TGI (A549 NSCLC) [µM] | TGI (KM12 colon) [µM] | TGI (HOP-92 NSCLC) [µM] | TGI (OVCAR-3 ovarian) [µM] | TGI (SF-268 CNS) [µM] | TGI (PC-3 prostate) [µM] | TGI (OVCAR-8 ovarian) [µM] | TGI (SNB-19 CNS) [µM] | TGI (K-562 leukemia) [µM] | TGI (MOLT-4 leukemia) [µM] | TGI (UO-31 renal) [µM] | TGI (NCI-H460 lung) [µM] | TGI (SNB-75 CNS) [µM] | TGI (A498 renal) [µM]
O=C1NC(=S)NC(=O)C1=Cc1ccc(-c2ccccc2)cc1 | > 100 | > 100 | > 100 | > 100 | > 100 | > 100 | > 100 | > 100 | > 100 | > 100 | > 100 | > 100 | > 100 | > 100 | > 100 | > 100 | > 100 |  | 
CCOC(=O)CCC(NC(=O)C(N)c1ccc([N+](=O)[O-])cc1)C(=O)NC(CCC(=O)OCC)C(=O)OCC (stereo unspecified) | > 100 |  | > 100 |  | > 100 | > 100 | > 100 | > 100 |  |  | > 100 | > 100 | > 100 | > 100 | > 100 | > 100 | > 100 | > 100 | > 100
CCCCC(/C=C\COC1CCCCO1)=C/C(=O)OCC (stereo unspecified) | > 100 | > 100 | > 100 | > 100 | > 100 | > 100 | > 100 |  | > 100 | > 100 | > 100 | > 100 | > 100 | > 100 | 71.5 | > 100 | > 100 | > 100 | > 100
CC(=O)Oc1c(OC(C)C)c(C)c(O[Si](C(C)C)(C(C)C)C(C)C)c2[nH]c3ccccc3c12 | > 100 | > 100 | > 100 | > 100 | > 100 | > 100 | > 100 | > 100 | > 100 | > 100 | > 100 | > 100 | > 100 | > 100 | > 24.2 | > 100 | > 100 | > 100 | 
Oc1cnc2c(O)cccc2c1 | 85.5 | 66.5 | > 100 |  | > 100 | > 100 | > 100 | > 100 | 65 | > 100 | > 100 | 80.5 | > 100 | > 100 | > 100 | > 100 | > 100 | 79.9 | > 100
[N-]=[N+]=Nc1ccc2c(c1)Sc1ccccc1N2CCCCN1CCN(Cc2ccc(C(=O)c3ccc(CSCC(N)C(=O)O)cc3)cc2)CC1 (stereo unspecified) | 35.6 |  | 29.5 | > 100 | > 100 |  | 7.91 | 38.2 | > 100 | > 100 | > 100 |  |  | 44.9 | > 100 | > 100 | > 100 |  | 37.7
COc1cccc(C=C2N=C(c3ccccc3)N(n3c(-c4ccccc4)nc4ccccc4c3=O)C2=O)c1 | > 100 |  | > 100 |  |  | > 100 | > 100 |  |  | > 100 | > 100 | > 100 | > 100 | > 100 | > 100 | > 100 | > 100 | > 100 | > 100
C=C1C(=O)O[C@H]2C/C(C)=C/CC[C@]3(C)CCC[C@](C)(CC[C@@H]12)O3 | 27.7 | 15.8 | 20.1 | 18.4 | > 50 | > 50 | 17.4 | 15.2 | 18.5 | 16.3 | 41.5 | 15.2 | > 50 | 18.8 | 15.7 | 15.7 | 16.9 | 43.6 | 
CSC1=C(C(=O)Nc2ccc(C)cc2)C(N)=NC1=O | > 100 | > 100 | > 100 | > 100 |  |  | > 100 | > 100 |  | > 100 |  | > 100 | > 100 | > 100 | > 100 | > 100 | > 100 | > 100 | 
COc1cc(/C=N/c2ccccn2)cc(OC)c1OC | > 100 | > 100 | > 100 | > 100 | > 100 | > 100 | > 100 | > 100 | > 100 | > 100 |  | > 100 | > 100 | > 100 | > 100 | > 100 | > 100 | > 100 | > 100
CCN(CC)c1ccc(C2Nc3ccc4ccccc4c3C3=C2C(=O)CCC3)cc1 (stereo unspecified) | > 100 | > 100 | > 100 | 59.1 | > 100 | > 100 | > 100 |  | > 100 | > 100 | > 100 | 38.3 | > 100 | > 100 | > 100 | > 100 | > 100 | 50.5 | > 100
CN(C)/C=N\c1nncc2[nH]cnc12 | > 100 | > 100 | > 100 |  | > 100 | > 100 | > 100 | > 100 | > 100 |  | > 100 | > 100 |  | > 100 | > 100 | > 100 |  | > 100 | > 100
NC(=O)c1nnsc1NN=O | > 100 | > 100 | > 100 | > 100 | > 100 | > 100 | > 100 |  |  | > 100 | > 100 | > 100 | > 100 | > 100 | > 100 | > 100 | > 100 | > 100 | > 100
CCO/C(O)=C(/C(=N)N1CCCC1)C(=O)Nc1cccc(Cl)c1 | > 100 | > 100 | > 100 | > 100 | > 100 | > 100 | > 100 |  | > 100 | > 100 | > 100 | > 100 | > 100 | > 100 | > 100 |  | > 100 | > 100 | > 100
NC(N)=NS(=O)(=O)c1ccc(NNC(=O)c2cccc3c(=O)c4ccccc4[nH]c23)cc1 | 67.2 | > 100 | 59.5 | 77.2 | > 100 | > 100 | 57 | 79.6 | 57.5 | > 100 | 89.7 | 59.4 | > 100 | 53 | 80.9 | 50.4 | 49.1 | > 100 | 
CCc1[nH]c(=O)c2oc3cc4ccccc4cc3c2c1C(=O)O | > 10 | > 10 | > 10 | > 10 | > 10 | > 10 | > 10 | > 10 | > 10 | > 10 | > 10 | > 10 | > 10 |  |  | > 10 | > 10 | > 10 | 
N#Cc1ncn(CCO)c1N | > 100 | > 100 | > 100 |  | > 100 | > 100 | > 100 |  | > 100 | > 100 | > 100 | > 100 | > 100 | > 100 | > 100 | > 100 | > 100 | > 100 | > 100
CCCC(C)NC(=O)c1ccc(N(C)Cc2cnc3nc(N)nc(N)c3n2)cc1 (stereo unspecified) | 47.6 | > 100 | > 100 | 84.5 | 88.6 |  | > 100 |  | 46.2 | > 100 | > 100 | 75.2 | > 100 | > 100 | > 100 | > 100 | > 100 | 56.6 | > 100
COC(=O)n1c(C)c(C=O)c2ccc(OC)cc21 |  | > 100 | > 100 | > 100 | > 100 | > 100 | 89.9 |  | > 100 |  | > 100 | > 100 | > 100 | > 100 | > 100 | > 100 | > 100 | > 100 | 
CCOC(=O)N(C)C(=C(F)F)C(F)(F)F | 58.3 | > 100 | 55.2 |  | > 100 | > 100 | > 100 | 65.2 | > 100 | 97.4 | > 100 | 79.4 |  | 62.1 | 51.6 | > 100 | > 100 | 93.1 | 
CCc1cc2c(c3c1CCCC3)CC1(Cc3ccc(C(=O)OC)cc3C1)C2 (stereo unspecified) | > 100 | > 100 | > 100 | > 100 | > 100 | > 100 | > 100 | > 100 | > 100 | > 100 | > 100 | > 100 | > 100 | > 100 | > 100 | > 100 | > 100 | > 100 | 
COc1cc(C2C(C(=O)Nc3ccc([N+](=O)[O-])cc3)=C(C)NC(C)=C2C(=O)Nc2ccc([N+](=O)[O-])cc2)ccc1O | > 63.2 |  | 30.9 | 39 | > 95.8 | > 100 | 39 | 57 | 55.7 | > 72.6 |  | > 54.2 | > 73.9 | 81.6 | 75.4 | 46.3 | > 62.1 | > 86.3 | 99.8
COc1cc(C2c3cc4c(cc3OC(NCCc3ccccc3)C2C)OCO4)cc(OC)c1OC (stereo unspecified) | 7.43 | > 22.3 | 18.6 |  | > 100 | > 90.4 | 4.12 | 63.3 |  | > 39.3 |  | > 100 | > 100 | 16.9 | > 37.7 | 22.8 | > 52.1 | 0.488 | 
Nc1ncnc2c1ncn2-c1ccc([N+](=O)[O-])cn1 | > 100 | > 100 | > 100 | > 100 | > 100 | > 100 | > 100 | > 100 | > 100 | > 100 |  | > 100 | > 100 |  |  | > 100 | > 100 | > 100 | > 100
CCOC(=O)[C@@H]1ON2O[C@H](OC3CCCCC3c3ccccc3)C[C@H]3OC(=O)[C@@H]1C32 (stereo partly specified) | > 100 | > 100 | > 100 | > 100 | > 100 | > 100 | > 100 | > 100 | > 100 | > 100 |  | > 100 |  | > 100 | > 100 | > 100 | > 100 | > 100 | > 100
CCCCOCOc1ccccc1P1(=O)COc2ccccc2OC1 |  | > 100 | > 100 | > 100 | > 100 | > 100 | > 100 | > 100 | > 100 | > 100 | > 100 |  | > 100 | > 100 |  | > 100 | > 100 | > 100 | 
NS(=O)(=O)c1nnc(NC(=O)c2cccc([N+](=O)[O-])c2)s1 | > 100 | > 100 | > 100 | > 100 | > 100 | > 100 | > 100 | > 100 | > 100 | > 100 |  | > 100 | > 100 | > 100 | > 100 | > 100 | > 100 |  | 
C[C@@H]1O[C@]2(O)[C@@H]3CCCN3S(=O)(=O)CCN2C1=O | > 100 |  | > 100 | > 100 | > 100 | > 100 | > 100 | > 100 | > 100 | > 100 |  | > 100 | > 100 | > 100 | > 100 | > 100 | > 100 | > 100 | > 100
